Experimental data from patent US20190365843A1, “Antimicrobial Activity of Bioactive Compounds and Their Derivatives” (priority 2018, published 2019).

What was measured:
E. coli ATCC 25922 = assay: Agar diffusion growth inhibition zone, E. coli ATCC 25922; format: cell-based; conditions: 6 mm = no activity; for zone of inhibition at 100 mg/mL / zone of inhibition at 150 mg/mL: Escherichia coli; for zone of inhibition at 100 mg/mL: ATCC25922, 100 mg; for zone of inhibition at 150 mg/mL: ATCC25922, 150 mg
Description: (§1) Among the bacterial agents tested Gram positive and Gram negative bacterial groups represented by Staphylococcus aureus and Enterococcus species and pathogenic members of Enterobacteriaceae, Vibronaceae, Aeromonadaceae, Pseudomonadaceae were tested. Freshly sub-cultured bacterial strains were inoculated into peptone water and incubated for 4 hours at 37° C. and adjusted to a turbidity of 0.5 (Gram Negative Bacilli), 1 (Gram Positive Cocci) and 4 (Pus cells, GNB, & few Budding yeast cells) Mc Farland standards (10^8 CFU/ml) respectively.
(§2) The different bioactive compounds and their derivatives were dissolved and diluted with solvents (DMSO), number of subsequent dilutions was performed to obtain different concentrations of the bioactive compounds and their derivatives. (Working Concentrations).
(§3) Agar well diffusion method is widely used to evaluate the antimicrobial activity of plants or other synthetic products. The suspension (microbial inoculum) was used to inoculate into Muller Hinton Agar Petri plates by lawn culture. Well (diameter 6 mm) were punched in the agar by sterile borer and filled with 50 μl of dissolved extracts. Plates were incubated in incubator at 37° C. for 24 hours and measured the growth inhibition zone diameters in mm compared with that of control (DMSO) showing no growth.
(§4) The bioactive compounds were tested with desired concentrations in 6 mm filter paper discs (Whatman, no. 3) were impregnated with 10 μL of each of the different dilutions. The discs were allowed to remain at room temperature until complete diluent evaporation and kept under refrigeration until ready to be used. 10 μL of diluents used to products were used as control. Tests were performed by Agar disk-diffusion testing method, which is the official method used in many clinical microbiology laboratories for routine antimicrobial susceptibility testing.
(§5) Similar to the procedure used in Agar well diffusion method, the suspension (microbial inoculum) was used to inoculate into Muller Hinton Agar Petri plates by lawn culture. Then, filter paper discs (about 6 mm in diameter), containing the test compound at a desired concentration, were placed on the agar surface. The Petri dishes were incubated under suitable incubation conditions.
(§6) Bioactive compounds showing zone of inhibition beyond the size of 6 mm are considered to be having an anti-microbial activity.

Enterococcus sp. = assay: Agar diffusion growth inhibition zone, Enterococcus sp.; format: cell-based, Enterococcus species; conditions: 6 mm = no activity
Description: as §1, §2, §3, §4, §5, §6

ETEC = assay: Agar diffusion growth inhibition zone, ETEC; format: cell-based, Enterotoxigenic E. coli; conditions: for inhibition of growth / zone of inhibition: ETEC; for zone of inhibition at 100000 µg/disc / zone of inhibition at 150000 µg/disc: Escherichia coli; for zone of inhibition: 6 mm = no activity
Description: (§7) Agar well diffusion method is widely used to evaluate the antimicrobial activity of plants or other synthetic products. The suspension (microbial inoculum) was used to inoculate into Muller Hinton Agar Petri plates by lawn culture. Well (diameter 6 mm) were punched in the agar by sterile borer and filled with 50 μl of dissolved extracts. Plates were incubated in incubator at 37° C. for 24 hours and measured the growth inhibition zone diameters in mm compared with that of control (DMSO) showing no growth. The antimicrobial agent diffuses in the agar medium and inhibits the growth of the microbial strain tested (Valgas et al., (2016) Methods for in vitro evaluating antimicrobial activity: A review. Journal of Pharmaceutical Analysis. 6(2):71-9).
(§8) Similar to the procedure used in Agar well diffusion method, the suspension (microbial inoculum) was used to inoculate into Muller Hinton Agar Petri plates by lawn culture. Then, filter paper discs (about 6 mm in diameter), containing the test compound at a desired concentration, were placed on the agar surface. The Petri dishes were incubated under suitable incubation conditions. Generally, antimicrobial agent diffuses into the agar and inhibits germination and growth of the test microorganism and then the diameters of inhibition growth zones are measured (Valgas et al., (2007) Screening methods to determine antibacterial activity of natural products. Brazilian Journal of Microbiology. 38:369-80; Balouiri M et al., (2016) Methods for in vitro evaluating antimicrobial activity: A review. Journal of Pharmaceutical Analysis. 6(2):71-9).

Proteus sp. = assay: Agar diffusion growth inhibition zone, Proteus sp.; format: cell-based, Proteus species
Description: as §1, §2, §3, §4, §5, §6

Pseudomonas sp. = assay: Agar diffusion growth inhibition zone, Pseudomonas sp.; format: cell-based, Pseudomonas species; conditions: for zone of inhibition at 100000 µg/disc / zone of inhibition at 150000 µg/disc: Pseudomonas; for zone of inhibition: Pseudomonas sp., 6 mm = no activity
Description: as §7, §8

Aeromonas sp. = assay: Agar diffusion growth inhibition zone, Aeromonas sp.; format: cell-based, Aeromonas species; conditions: for zone of inhibition at 100 mg/mL / zone of inhibition at 150 mg/mL / zone of inhibition: Aeromonas sp., 6 mm = no activity
Description: as §1, §2, §3, §4, §5, §6

EAEC = assay: Agar diffusion growth inhibition zone, EAEC; format: cell-based, Enteroaggregative E. coli; conditions: for zone of inhibition at 100 mg/mL / zone of inhibition at 150 mg/mL: Escherichia coli; for zone of inhibition at 100 mg/mL / zone of inhibition at 150 mg/mL / zone of inhibition: 6 mm = no activity
Description: as §1, §2, §3, §4, §5, §6

S. aureus = assay: Agar diffusion growth inhibition zone, S. aureus; format: cell-based, Staphylococcus aureus; conditions: for zone of inhibition at 100 mg/mL / zone of inhibition at 150 mg/mL: Staphylococcus aureus
Description: as §1, §2, §3, §4, §5, §6

Salmonella typhimurium = assay: Agar diffusion growth inhibition zone, Salmonella typhimurium; format: cell-based; conditions: 6 mm = no activity; for zone of inhibition at 100 mg/mL / zone of inhibition at 150 mg/mL: Salmonella enterica
Description: as §1, §2, §3, §4, §5, §6

Vibrio cholera = assay: Agar diffusion growth inhibition zone, Vibrio cholera; format: cell-based, Vibrio cholerae; conditions: for zone of inhibition at 100000 µg/disc / zone of inhibition at 150000 µg/disc: Vibrio cholerae; for zone of inhibition: Vibrio cholera, 6 mm = no activity
Description: as §7, §8

Candida abicans = assay: Agar diffusion growth inhibition zone, Candida abicans; format: cell-based, Candida albicans; conditions: 6 mm = no activity
Description: as §1, §2, §3, §4, §5, §6

Pleisiomonas sp. = assay: Agar diffusion growth inhibition zone, Pleisiomonas sp.; format: cell-based, Pleisiomonas species; conditions: for zone of inhibition at 100 mg/mL / zone of inhibition at 150 mg/mL / zone of inhibition: Pleisiomonas sp., 6 mm = no activity; for inhibition of growth: Plesiomonas species
Description: as §1, §2, §3, §4, §5, §6

Citrobacter sp. = assay: Agar diffusion growth inhibition zone, Citrobacter sp.; format: cell-based, Citrobacter species; conditions: 6 mm = no activity
Description: as §1, §2, §3, §4, §5, §6

Shigella sp. = assay: Agar diffusion growth inhibition zone, Shigella sp.; format: cell-based, Shigella species; conditions: for zone of inhibition at 100000 µg/disc / zone of inhibition at 150000 µg/disc: Shigella; for zone of inhibition: Shigella sp., 6 mm = no activity
Description: as §7, §8

Klebsiella sp. = assay: Agar diffusion growth inhibition zone, Klebsiella sp.; format: cell-based, Klebsiella species; conditions: 6 mm = no activity
Description: as §1, §2, §3, §4, §5, §6

[1] = Proteus sp., 150 mg, 6 mm = no activity

Compound: CCOC(=O)Oc1ccc(/C=C/C(=O)COC(=O)/C=C/c2ccc(OC(=O)OCC)c(OC)c2)cc1OC [compound 7, Diethylcalebin-A dicarbonate]
- zone of inhibition at 100 mg/mL (E. coli ATCC 25922): 6 mm
- zone of inhibition at 150 mg/mL (E. coli ATCC 25922): 6 mm
- zone of inhibition at 100 mg/mL (Enterococcus sp.; 100 mg): 6 mm
- zone of inhibition at 150 mg/mL (Enterococcus sp.; 150 mg): 6 mm
- inhibition of growth (ETEC): significantly inhibited the growth
- zone of inhibition at 100000 µg/disc (ETEC): 10 mm
- zone of inhibition at 150000 µg/disc (ETEC): 10 mm
- zone of inhibition at 150 mg/mL (Proteus sp.; [1]): 6 mm
- zone of inhibition at 100000 µg/disc (Pseudomonas sp.): 6 mm
- zone of inhibition at 150000 µg/disc (Pseudomonas sp.): 6 mm
- zone of inhibition at 100 mg/mL (Aeromonas sp.; 100 mg): 6 mm
- zone of inhibition at 150 mg/mL (Aeromonas sp.; 150 mg): 6 mm
- inhibition of growth (EAEC): inhibited
- zone of inhibition at 100 mg/mL (EAEC; 100 mg): 9 mm
- zone of inhibition at 150 mg/mL (EAEC; 150 mg): 9 mm
- zone of inhibition at 100 mg/mL (S. aureus; 100 mg, 6 mm = no activity): 6 mm
- zone of inhibition at 150 mg/mL (S. aureus; 150 mg, 6 mm = no activity): 6 mm
- zone of inhibition at 100 mg/mL (Salmonella typhimurium; 100 mg): 6 mm
- zone of inhibition at 150 mg/mL (Salmonella typhimurium; 150 mg): 6 mm
- zone of inhibition at 100000 µg/disc (Vibrio cholera): 6 mm
- zone of inhibition at 150000 µg/disc (Vibrio cholera): 6 mm
- zone of inhibition at 100 mg/mL (Candida abicans; 100 mg): 6 mm
- zone of inhibition at 150 mg/mL (Candida abicans; 150 mg): 6 mm
- zone of inhibition at 100 mg/mL (Pleisiomonas sp.; 100 mg): 10 mm
- zone of inhibition at 150 mg/mL (Pleisiomonas sp.; 150 mg): 10 mm
- inhibition of growth (Pleisiomonas sp.): inhibited
- zone of inhibition at 100 mg/mL (Citrobacter sp.; 100 mg): 6 mm
- zone of inhibition at 150 mg/mL (Citrobacter sp.; 150 mg): 6 mm
- zone of inhibition at 100000 µg/disc (Shigella sp.): 6 mm
- zone of inhibition at 150000 µg/disc (Shigella sp.): 6 mm
- zone of inhibition at 100 mg/mL (Klebsiella sp.; 100 mg): 6 mm
- zone of inhibition at 150 mg/mL (Klebsiella sp.; 150 mg): 6 mm

Compound: COc1cc(CCC(=O)/C=C(\N)CCc2ccc(O)c(OC)c2)ccc1O [compound 9, Amino- tetrahydrocurcumin]
- zone of inhibition at 100 mg/mL (E. coli ATCC 25922): 6 mm
- zone of inhibition at 150 mg/mL (E. coli ATCC 25922): 6 mm
- zone of inhibition at 100 mg/mL (Enterococcus sp.; 100 mg): 6 mm
- zone of inhibition at 150 mg/mL (Enterococcus sp.; 150 mg): 6 mm
- zone of inhibition at 100000 µg/disc (ETEC): 9 mm
- zone of inhibition at 150000 µg/disc (ETEC): 9 mm
- zone of inhibition at 150 mg/mL (Proteus sp.; [1]): 6 mm
- zone of inhibition at 100000 µg/disc (Pseudomonas sp.): 6 mm
- zone of inhibition at 150000 µg/disc (Pseudomonas sp.): 6 mm
- zone of inhibition at 100 mg/mL (Aeromonas sp.; 100 mg): 6 mm
- zone of inhibition at 150 mg/mL (Aeromonas sp.; 150 mg): 6 mm
- zone of inhibition at 100 mg/mL (EAEC; 100 mg): 6 mm
- zone of inhibition at 150 mg/mL (EAEC; 150 mg): 6 mm
- zone of inhibition at 100 mg/mL (S. aureus; 100 mg, 6 mm = no activity): 6 mm
- zone of inhibition at 150 mg/mL (S. aureus; 150 mg, 6 mm = no activity): 6 mm
- zone of inhibition at 100 mg/mL (Salmonella typhimurium; 100 mg): 6 mm
- zone of inhibition at 150 mg/mL (Salmonella typhimurium; 150 mg): 6 mm
- zone of inhibition at 100000 µg/disc (Vibrio cholera): 6 mm
- zone of inhibition at 150000 µg/disc (Vibrio cholera): 6 mm
- zone of inhibition at 100 mg/mL (Candida abicans; 100 mg): 6 mm
- zone of inhibition at 150 mg/mL (Candida abicans; 150 mg): 6 mm
- zone of inhibition at 100 mg/mL (Pleisiomonas sp.; 100 mg): 6 mm
- zone of inhibition at 150 mg/mL (Pleisiomonas sp.; 150 mg): 6 mm
- zone of inhibition at 100 mg/mL (Citrobacter sp.; 100 mg): 6 mm
- zone of inhibition at 150 mg/mL (Citrobacter sp.; 150 mg): 6 mm
- zone of inhibition at 100000 µg/disc (Shigella sp.): 6 mm
- zone of inhibition at 150000 µg/disc (Shigella sp.): 6 mm
- zone of inhibition at 100 mg/mL (Klebsiella sp.; 100 mg): 6 mm
- zone of inhibition at 150 mg/mL (Klebsiella sp.; 150 mg): 6 mm

Compound: Demethoxycurcumin [compound 2]
- zone of inhibition (E. coli ATCC 25922; 100 mg): 6 mm
- zone of inhibition (E. coli ATCC 25922; 150 mg): 6 mm
- zone of inhibition (Enterococcus sp.; 100 mg): 6 mm
- zone of inhibition (Enterococcus sp.; 150 mg): 6 mm
- inhibition of growth (ETEC): significantly inhibited the growth
- zone of inhibition (ETEC; 100 mg): 12 mm
- zone of inhibition (ETEC; 150 mg): 12 mm
- zone of inhibition (Proteus sp.; Proteus sp., 100 mg, 6 mm = no activity): 12 mm
- zone of inhibition (Proteus sp.; [1]): 12 mm
- zone of inhibition (Proteus sp.; Proteus species, at both concentrations of 100 mg and 150 mg): 12 mm
- zone of inhibition (Pseudomonas sp.; 100 mg): 6 mm
- zone of inhibition (Pseudomonas sp.; 150 mg): 6 mm
- zone of inhibition (Aeromonas sp.; 100 mg): 9 mm
- zone of inhibition (Aeromonas sp.; 150 mg): 9 mm
- inhibition of growth (Aeromonas sp.; Aeromonas species): inhibited the growth
- zone of inhibition (EAEC; 100 mg): 6 mm
- zone of inhibition (EAEC; 150 mg): 6 mm
- zone of inhibition (S. aureus; 100 mg, 6 mm = no activity): 11 mm
- zone of inhibition (S. aureus; 150 mg, 6 mm = no activity): 11 mm
- zone of inhibition (S. aureus; concentration not given): 11 mm
- zone of inhibition (Salmonella typhimurium; 100 mg): 6 mm
- zone of inhibition (Salmonella typhimurium; 150 mg): 6 mm
- zone of inhibition (Vibrio cholera; 100 mg): 6 mm
- zone of inhibition (Vibrio cholera; 150 mg): 6 mm
- zone of inhibition (Candida abicans; 100 mg): 6 mm
- zone of inhibition (Candida abicans; 150 mg): 6 mm
- zone of inhibition (Pleisiomonas sp.; 100 mg): 11 mm
- zone of inhibition (Pleisiomonas sp.; 150 mg): 11 mm
- inhibition of growth (Pleisiomonas sp.): inhibited
- zone of inhibition (Citrobacter sp.; 100 mg): 6 mm
- zone of inhibition (Citrobacter sp.; 150 mg): 6 mm
- zone of inhibition (Shigella sp.; 100 mg): 6 mm
- zone of inhibition (Shigella sp.; 150 mg): 6 mm
- zone of inhibition (Klebsiella sp.; 100 mg): 6 mm
- zone of inhibition (Klebsiella sp.; 150 mg): 6 mm
